One assay concerns LoVo Colon cell line. The assay can be described thus: Cytotoxicity assay using LoVo colon cell line, SRB. Format: cell-based. As to conditions: 4 days incubation, SRB, read-out: Inhibition of LoVo. Summed up:
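Growth inhibition read by sulforhodamine B after 4-day compound exposure at 37 °C. Colon LoVo cells plated at 4000 per well in RPMI/10% FBS a day earlier; doses ranged 5 pM-20 μM or 170 pg/ml-10 μg/ml. IC50 is the concentration halving proliferation versus untreated wells.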

Assay [1] concerns 80S14 (p21-deficient) cells. The experiment in a line: Cytotoxicity assay using isogenic cell lines: IC50 in 80S14 (p21-deficient) cells, SRB. As to conditions: Homo sapiens, 120 h, SRB. The assay is classed as cell-based, human. Summed up: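 IC50 is the concentration halving proliferation relative to untreated controls, read from SRB absorbance (560 nm) after TCA fixation. Test agent dilutions (5 pM–50 μM or 170 pg/ml–10 μg/ml) were left on p21-deficient 80S14 cells (12,000/well, pre-incubated overnight) for 5 days at 37 °C.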

Where [2] appears, read: Homo sapiens, 96 h, LoVo colon cells.
Where [3] appears, read: 80S14 p21-deficient cells, 5 days incubation, read-out: IC50 for 80SI4.
Where [4] appears, read: Homo sapiens, 96 h, Cellular activity in LoVo cell.
Setting [5] is: 80S14 (p21-deficient) cells, 5 days, class symbols, read-out: IC50 for 80S14.

The text below walks through data of patent publication US20060063784A1, “Method of using substituted pyrazolo [1,5-a] pyrimidines” (priority 2004, published 2006).

Like-named read-outs stand apart in the source and are kept apart here.

Consider `O=C(Nc1cccc(-c2ccnc3c(C(=O)c4cccs4)cnn23)c1)c1cccs1` [Example 51, N-{3-[3-(thien-2-ylcarbonyl)pyrazolo[1,5-a]pyrimidin-7-yl]phenyl}thiophene-2-carboxamide], for which the IC50 in the assay with LoVo Colon cell line (setting [2]) was less than 100 nM; in assay [1] (setting [3]) it was less than 1000 nM.
Regarding `O=C(c1cccs1)c1cnn2c(-c3cccc(NCc4cccc(Cl)c4)c3)ccnc12` [Example 365, (7-{3-[(3-Chlorobenzyl)amino]phenyl}pyrazolo[1,5-a]pyrimidin-3-yl)(thien-2-yl)methanone], the IC50 with LoVo Colon cell line (setting [4]) lay in the range of 1000 to 20000 nM; in assay [1] (setting [5]), 10000 to 50000 nM.
Taken in the same sequence, the figures for `CC(C)CC(=O)Nc1cc(-c2ccnc3c(C(=O)c4cccs4)cnn23)cs1` [Example 351, 3-Methyl-N-{4-[3-(thien-2-ylcarbonyl)pyrazolo[1,5-a]pyrimidin-7-yl]thien-2-yl}butanamide] were 1000 to 20000 nM and 1000 to 10000 nM.
Taken in the same sequence, the figures for `Cc1cc(C)cc(-c2cnn3c(-c4cccc(-c5nnn(Cc6cccnc6)n5)c4)ccnc23)c1` [Example 494, 3-(3,5-Dimethylphenyl)-7-{3-[2-(pyridin-3-ylmethyl)-2H-tetrazol-5-yl]phenyl}pyrazolo[1,5-a]pyrimidine] were 100 to 1000 nM and 1000 to 10000 nM.
Turning to `Cc1cc(-c2cccc(NC(=O)OC(C)C)c2)n2ncc(C(=O)c3cccs3)c2n1` [Example 197, isopropyl 3-[5-methyl-3-(thien-2-ylcarbonyl)pyrazolo[1,5-a]pyrimidin-7-yl]phenylcarbamate], the IC50 with LoVo Colon cell line (setting [2]) was less than 100 nM; in assay [1] (setting [3]), less than 1000 nM.
As to `O=C(Nc1cc(-c2ccnc3c(C(=O)c4cccs4)cnn23)ccc1Cl)c1ccccc1` [Example 312, N-{2-Chloro-5-[3-(2-thienylcarbonyl)pyrazolo[1,5-a]pyrimidin-7-yl]phenyl}benzamide], the IC50 is less than 100 nM with LoVo Colon cell line (setting [4]) and less than 1000 nM in assay [1] (setting [5]).
As for `O=C(CC1CCCCCC1)Nc1cccc(-c2ccnc3c(C(=O)c4cccs4)cnn23)c1` [Example 75, 2-cycloheptyl-N-{3-[3-(thien-2-ylcarbonyl)pyrazolo[1,5-a]pyrimidin-7-yl]phenyl}acetamide], the IC50 in the assay with LoVo Colon cell line (setting [2]) is less than 100 nM; in assay [1] (setting [3]) it was less than 1000 nM.
For the compound `O=C(c1cccs1)c1cnn2c(-c3cccc(NCc4ccc(Cl)cc4)c3)ccnc12` [Example 366, (7-{3-[(4-Chlorobenzyl)amino]phenyl}pyrazolo[1,5-a]pyrimidin-3-yl)(thien-2-yl)methanone], the IC50 was 1000 to 20000 nM in the assay on LoVo Colon cell line (setting [4]) and 10000 to 50000 nM in assay [1] (setting [5]).
Taken in the same sequence, the figures for `CCCCC(CC)CNc1cccc(-c2ccnc3c(C(=O)c4cccs4)cnn23)c1` (stereo not drawn) [Example 419, (7-{3-[(2-Ethylhexyl)amino]phenyl}pyrazolo[1,5-a]pyrimidin-3-yl)(thien-2-yl)methanone] were 1000 to 20000 nM and 1000 to 10000 nM.
For `CC(C)CC(=O)Nc1cccc(-c2ccnc3c(-c4ccc(Cl)cc4)cnn23)c1` [Example 472, N-{3-[3-(4-Chlorophenyl)pyrazolo[1,5-a]pyrimidin-7-yl]phenyl}-3-methylbutanamide], in that order: 1000 to 20000 nM and 10000 to 50000 nM.
Taken in the same sequence, the figures for `O=C(c1cccs1)c1cnn2c(-c3cccc(NCc4ccccc4)c3)ccnc12` [Example 349, {7-[3-(Benzylamino)phenyl]pyrazolo[1,5-a]pyrimidin-3-yl}(thien-2-yl)methanone] were 100 to 1000 nM and 1000 to 10000 nM.
Turning to `O=C(Nc1cccc(-c2ccnc3c(C(=O)c4cccs4)cnn23)c1)NC1CCCCC1` [Example 353, N-Cyclohexyl-N′-{3-[3-(thien-2-ylcarbonyl)pyrazolo[1,5-a]pyrimidin-7-yl]phenyl}urea], the IC50 in the assay with LoVo Colon cell line (Cellular activity in LoVo cell) is less than 100 nM; in assay [1] (setting [5]), less than 1000 nM.
On to `Cc1cc(C)cc(-c2cnn3c(-c4cccc(NC(=O)CC(C)C)c4)ccnc23)c1` [Example 476, N-{3-[3-(3,5-Dimethylphenyl)pyrazolo[1,5-a]pyrimidin-7-yl]phenyl}-3-methylbutanamide], for which the IC50 was less than 100 nM in the assay on LoVo Colon cell line (setting [4]) and less than 1000 nM in assay [1] (setting [5]).
With `O=C(Nc1cccc(-c2ccnc3c(C(=O)c4cccs4)cnn23)c1)NC1CCCCC1` [Example 3, N-cyclohexyl-N′-{3-[3-(thien-2-ylcarbonyl)pyrazolo[1,5-a]pyrimidin-7-yl]phenyl}urea], the IC50 with LoVo Colon cell line (setting [2]) was less than 100 nM; in assay [1] (setting [3]), less than 1000 nM.
As to `CN(C)c1ccc(-c2cccc(-c3ccnc4c(C(=O)c5cccs5)cnn34)c2)cc1` [Example 450, {7-[4′-(Dimethylamino)-1,1′-biphenyl-3-yl]pyrazolo[1,5-a]pyrimidin-3-yl}(thien-2-yl)methanone], the IC50 in the assay with LoVo Colon cell line (setting [4]) was less than 100 nM; in assay [1] (setting [5]) it was less than 1000 nM.
With `CN(C)c1ccc(-c2cc(-c3ccnc4c(C(=O)c5cccs5)cnn34)ccc2F)cc1` [Example 454, {7-[4′-(Dimethylamino)-6-fluoro-1,1′-biphenyl-3-yl]pyrazolo[1,5-a]pyrimidin-3-yl}(thien-2-yl)methanone], the results for the IC50 (with LoVo Colon cell line (setting [4]); in assay [1] (setting [5])) were 100 to 1000 nM and 1000 to 10000 nM, respectively.
Taken in the same sequence, the figures for `C=C(C)CNc1cccc(-c2ccnc3c(C(=O)c4cccs4)cnn23)c1` [Example 434, (7-{3-[(2-Methylprop-2-enyl)amino]phenyl}pyrazolo[1,5-a]pyrimidin-3-yl)(thien-2-yl)methanone] were 100 to 1000 nM and 1000 to 10000 nM.
Taken in the same sequence, the figures for `O=C(Nc1ccc(-c2ccnc3c(C(=O)c4cccs4)cnn23)s1)c1ccccc1` [Example 361, N-{5-[3-(Thien-2-ylcarbonyl)pyrazolo[1,5-a]pyrimidin-7-yl]thien-2-yl}benzamide] were 1000 to 20000 nM and 10000 to 50000 nM.
On to `CC(C)(C)CCNc1cccc(-c2ccnc3c(C(=O)c4cccs4)cnn23)c1` [Example 372, (7-{3-[(3,3-Dimethylbutyl)amino]phenyl}pyrazolo[1,5-a]pyrimidin-3-yl)(thien-2-yl)methanone], for which the IC50 in the assay on LoVo Colon cell line (setting [4]) is less than 100 nM; in assay [1] (setting [5]), less than 1000 nM.
With `Cc1cnc2c(C(=O)c3cccs3)cnn2c1-c1cccc(NC(=O)OC(C)C)c1` [Example 211, isopropyl 3-[6-methyl-3-(thien-2-ylcarbonyl)pyrazolo[1,5-a]pyrimidin-7-yl]phenylcarbamate], the IC50 in the assay on LoVo Colon cell line (setting [2]) fell in the range of 1000 to 2000 nM; in assay [1] (setting [3]), 10000 to 50000 nM.
Regarding `O=C(Nc1cccc(-c2ccnc3c(C(=O)c4cccs4)cnn23)c1)c1ccc(-n2cccc2)cc1` [Example 383, 4-(1H-pyrrol-1-yl)-N-{3-[3-(thien-2-ylcarbonyl)pyrazolo[1,5-a]pyrimidin-7-yl]phenyl}benzamide], the IC50 lay in the range of 100 to 1000 nM with LoVo Colon cell line (setting [4]) and 1000 to 10000 nM in assay [1] (setting [5]).
Consider `CC/C=C/CNc1cccc(-c2ccnc3c(C(=O)c4cccs4)cnn23)c1` [Example 432, (7-{3-[(2E)-Pent-2-enylamino]phenyl}pyrazolo[1,5-a]pyrimidin-3-yl)(thien-2-yl)methanone], for which the IC50 with LoVo Colon cell line (setting [4]) was less than 100 nM; in assay [1] (setting [5]) it was less than 1000 nM.
Taken in the same sequence, the figures for `CC(C)CC(=O)Nc1ccc(-c2ccnc3c(C(=O)c4cccs4)cnn23)s1` [Example 343, 3-Methyl-N-{5-[3-(thien-2-ylcarbonyl)pyrazolo[1,5-a]pyrimidin-7-yl]thien-2-yl}butanamide] were 1000 to 20000 nM and 1000 to 10000 nM.
Turning to `COCCN(CCOC)C(=O)Nc1cccc(-c2ccnc3c(C(=O)c4cccs4)cnn23)c1` [Example 168, N,N-bis(2-methoxyethyl)-N′-{3-[3-(thien-2-ylcarbonyl)pyrazolo[1,5-a]pyrimidin-7-yl]phenyl}urea], the IC50 was in the range of 1000 to 2000 nM with LoVo Colon cell line (setting [2]) and 10000 to 50000 nM in assay [1] (setting [3]).
Turning to `O=C(Nc1cc(-c2ccnc3c(C(=O)c4cccs4)cnn23)ccc1F)c1ccccc1F` [Example 375, 2-fluoro-N-{2-fluoro-5-[3-(thien-2-ylcarbonyl)pyrazolo[1,5-a]pyrimidin-7-yl]phenyl}benzamide], the figures for the IC50 (with LoVo Colon cell line (setting [4]); in assay [1] (setting [5])) were less than 100 nM and less than 1000 nM, respectively.
In the case of `CCNc1cccc(-c2ccnc3c(C(=O)c4cccs4)cnn23)c1` [Example 422, {7-[3-(Ethylamino)phenyl]pyrazolo[1,5-a]pyrimidin-3-yl}(thien-2-yl)methanone], the IC50 with LoVo Colon cell line (setting [4]) was 100 to 1000 nM; in assay [1] (setting [5]), 1000 to 10000 nM.
In the case of `CCN(CC)C(=O)Nc1cccc(-c2ccnc3c(C(=O)c4cccs4)cnn23)c1` [Example 159, N,N-diethyl-N′-{3-[3-(thien-2-ylcarbonyl)pyrazolo[1,5-a]pyrimidin-7-yl]phenyl}urea], the IC50 lay in the range of 100 to 1000 nM in the assay on LoVo Colon cell line (setting [2]) and 1000 to 10000 nM in assay [1] (setting [3]).
For the compound `CCN(CC)c1cccc(-c2ccnc3c(C(=O)c4cccs4)cnn23)c1` [Example 394, {7-[3-(Diethylamino)phenyl]pyrazolo[1,5-a]pyrimidin-3-yl}(thien-2-yl)methanone], the IC50 in the assay with LoVo Colon cell line (setting [4]) was 100 to 1000 nM; in assay [1] (setting [5]), 1000 to 10000 nM.
For `O=C(c1cccs1)c1cnn2c(-c3cccc(-c4nnn(Cc5ccccn5)n4)c3)ccnc12` [Example 509, (7-{3-[2-(Pyridin-2-ylmethyl)-2H-tetraazol-5-yl]phenyl}pyrazolo[1,5-a]pyrimidin-3-yl)(thien-2-yl)methanone], in that order: 100 to 1000 nM and less than 1000 nM.
`CC(C)CC(=O)Nc1cccc(-c2ccnc3c(-c4cccc(CN5CCN(C)CC5)c4)cnn23)c1` [Example 489, 3-Methyl-N-[3-(3-{3-[(4-methylpiperazin-1-yl)methyl]phenyl}pyrazolo[1,5-a]pyrimidin-7-yl)phenyl]butanamide]: the IC50 in the assay with LoVo Colon cell line (setting [4]) lay within 1000 to 20000 nM; in assay [1] (setting [5]), 1000 to 10000 nM.
